# From DBAASP
# Key:
# Experiment in all cases: ≥ marks a high value that may be exact or a test limit, other limits are often not marked, values filed in µg/mL are converted to µM
# [1] = tested on: Staphylococcus aureus ATCC 25923
# [2] = tested on: Nocardia asteroides 201118
# [3] = tested on: Acinetobacter baumannii ATCC 19606
# [4] = tested on: Pseudomonas aeruginosa ATCC 47085
# [5] = tested on: Escherichia coli ATCC 25922
# [6] = tested on: Escherichia coli ATCC 8739
# [7] = tested on: Klebsiella pneumoniae ATCC 13883
# [8] = tested on: Staphylococcus aureus ATCC 29213
# [9] = tested on: Staphylococcus aureus NCTC 8325
# [10] = tested on: Klebsiella pneumoniae KK3 9904
# [11] = tested on: Enterobacter cloacae HNTCC 53001
# [12] = tested on: Staphylococcus epidermidis RP62A
# [13] = tested on: Enterococcus faecalis ATCC 29212
# [14] = tested on: Proteus mirabilis ATCC 25933
# [15] = tested on: Pseudomonas aeruginosa ATCC 27853
# [16] = tested on: Candida albicans ATCC 90028
# [17] = tested on: Bacillus subtilis
# [18] = tested on: Salmonella typhimurium
# [19] = tested on: Pseudomonas aeruginosa
# [20] = tested on: Staphylococcus aureus
# [21] = tested on: Escherichia coli HB101
# [22] = tested on: Micrococcus luteus ATCC 4698
# [23] = tested on: Staphylococcus aureus ATCC 29737
# [24] = tested on: Candida albicans ATCC 64550
# [25] = tested on: Staphylococcus aureus USA 100
# [26] = tested on: Staphylococcus epidermidis ATCC 12228
# [27] = tested on: Staphylococcus aureus USA 300
# [28] = tested on: Pseudomonas aeruginosa ATCC 9027
# [29] = tested on: Staphylococcus epidermidis ATCC 35984
# [30] = tested on: Staphylococcus aureus ATCC 33591
# [31] = tested on: Escherichia coli W160-37
# [32] = tested on: Corynebacterium glutamicum ATCC 13032
# [33] = tested on: Staphylococcus aureus ATCC 9144
structure (smiles),measurement,setting,value
CC[C@H](C)[C@H](NC(=O)[C@H](C)NC(=O)CNC(=O)[C@@H](NC(=O)[C@H](CC(C)C)NC(=O)[C@H](CC(C)C)NC(=O)[C@@H]1CCCN1C(=O)[C@H](CC(C)C)NC(=O)[C@@H](N)Cc1ccccc1)C(C)C)C(=O)N[C@@H](CO)C(=O)N[C@@H](CO)C(=O)N[C@H](C(=O)N[C@@H](CC(C)C)C(=O)N1CCC[C@H]1C(=O)N[C@@H](CCCCN)C(=O)N[C@H](C(=O)N[C@@H](Cc1ccccc1)C(N)=O)[C@@H](C)CC)[C@@H](C)CC [FLPLLVGAISSILPKIF],MIC,[1],12.5 µM
same,MIC,[2],6.3 µM
CC[C@H](C)[C@H](NC(=O)CN)C(=O)NCC(=O)N[C@@H](C)C(=O)N[C@H](C(=O)N[C@@H](CC(C)C)C(=O)N[C@@H](CCCCN)C(=O)N[C@H](C(=O)N[C@@H](CC(C)C)C(=O)N[C@H](C(=O)N[C@H](C(=O)NCC(=O)N[C@@H](CC(C)C)C(=O)N1CCC[C@H]1C(=O)N[C@@H](C)C(=O)N[C@@H](CC(C)C)C(=O)N[C@H](C(=O)N[C@@H](CO)C(=O)N[C@@H](Cc1c[nH]c2ccccc12)C(=O)N[C@H](C(=O)N[C@@H](CCCCN)C(=O)N[C@@H](CCCN=C(N)N)C(=O)N[C@@H](CCCCN)C(=O)N[C@@H](CCCN=C(N)N)C(=O)N[C@@H](CCC(N)=O)C(=O)N[C@@H](CCC(N)=O)C(=O)O)[C@@H](C)CC)[C@@H](C)CC)[C@@H](C)O)[C@@H](C)O)C(C)C)C(C)C [GIGAVLKVLTTGLPALISWIKRKRQQ],MIC,[3],4.1 µM
same,MIC,[4],4.9 µM
same,MIC,[5],6.3 µM
same,MIC,[6],4.52 µM
same,MIC,[7],3.5 µM
same,MIC,[8],3.83 µM
CC[C@H](C)[C@H](NC(=O)CNC(=O)[C@H](CCCCN)NC(=O)[C@H](Cc1ccccc1)NC(=O)[C@@H](NC(=O)[C@H](CCCCN)NC(=O)[C@H](CCCCN)NC(=O)[C@H](CC(C)C)NC(=O)[C@H](C)NC(=O)[C@H](CCCCN)NC(=O)[C@H](CC(C)C)NC(=O)CN)C(C)C)C(=O)N[C@@H](Cc1cnc[nH]1)C(=O)N[C@@H](CCCCN)C(=O)N[C@@H](C)C(=O)N[C@H](C(=O)N[C@@H](CCCCN)C(=O)N[C@@H](CC(C)C)C(=O)N[C@H](C(=O)N[C@@H](CC(N)=O)C(=O)N[C@@H](CC(N)=O)C(=O)N[C@@H](Cc1cnc[nH]1)C(=O)N[C@H](C(=O)N[C@@H](CCC(N)=O)C(=O)O)C(C)C)[C@@H](C)CC)[C@@H](C)CC [GLKALKKVFKGIHKAIKLINNHVQ],MIC,[9],20 µM
same,MIC,[10],5 µM
same,MIC,[11],5 µM
same,MIC,[12],10 µM
same,MIC,[13],> 80 µM
same,MIC,[14],≥ 80 µM
same,MIC,[15],5 µM
same,MIC,[5],5 µM
same,MIC,[16],≥ 80 µM
CC[C@H](C)[C@H](NC(=O)[C@@H](NC(=O)[C@@H]1CCCN1C(=O)[C@@H](NC(=O)[C@@H]1CCCN1C(=O)[C@H](CCCCN)NC(=O)[C@H](CCCCN)NC(=O)[C@H](CO)NC(=O)CN)C(C)C)[C@@H](C)CC)C(=O)N[C@@H](Cc1ccc(O)cc1)C(=O)N[C@H]1CSSC[C@@H](C(=O)N[C@@H](CCC(N)=O)C(=O)N[C@@H](CCCN=C(N)N)C(=O)N[C@@H](CCSC)C(=O)O)NC(=O)[C@H](CCCCN)NC(=O)[C@H]([C@@H](C)O)NC(=O)[C@H](CCCN=C(N)N)NC(=O)[C@H](CCCN=C(N)N)NC(=O)[C@H](CC(N)=O)NC1=O [GSKKPVPIIYCNRRTKCQRM],MIC,[17],5.2 µM
same,MIC,[18],1.3 µM
same,MIC,[19],5.2 µM
same,MIC,[20],20.8 µM
same,MIC,[21],2.6 µM
CC[C@H](C)[C@H](N)C(=O)N[C@@H](C)C(=O)N[C@@H](CCC(N)=O)C(=O)N[C@@H](CCC(N)=O)C(=O)N[C@@H](C)C(=O)N[C@@H](C)C(=O)N[C@@H](CC(N)=O)C(=O)N[C@H](C(=O)N[C@@H](C)C(=O)N[C@@H](C)C(=O)N[C@H](C(=O)N[C@@H](C)C(=O)N[C@@H](CCCN=C(N)N)C(=O)NCC(=O)O)[C@@H](C)O)C(C)C [IAQQAANVAATARG],MIC,[22],8.84 µM
CC[C@H](C)[C@H](N)C(=O)N[C@@H](CCCCN)C(=O)N[C@H](C(=O)N[C@@H](CCCCN)C(=O)N[C@H](C(=O)N[C@@H](CCCCN)C(=O)N[C@H](C(=O)N[C@@H](CCCCN)C(N)=O)[C@@H](C)CC)[C@@H](C)CC)[C@@H](C)CC [IKIKIKIK],MIC,[23],≥ 127 µM
same,MIC,[24],3.13 µM
same,MIC,[25],25 µM
same,MIC,[26],2.03 µM
same,MIC,[27],25 µM
same,MIC,[28],6.25 µM
same,MIC,[5],31.8 µM
same,MIC,[16],1.56 µM
CC(C)[C@H](NC(=O)[C@H](Cc1ccccc1)NC(=O)[C@H](C)NC(=O)[C@H](CCCCN)NC(=O)CNC(=O)[C@H](Cc1ccccc1)NC(=O)[C@H](CCCCN)NC(=O)[C@H](CCCCN)NC(=O)[C@H](C)NC(=O)[C@H](CCCCN)NC(=O)[C@@H](N)CCCCN)C(=O)N[C@@H](CCCCN)C(N)=O [KKAKKFGKAFVK],MIC,[1],> 371 µM
same,MIC,[29],≥ 371 µM
same,MIC,[15],> 371 µM
same,MIC,[30],≥ 371 µM
CC(C)C[C@H](NC(=O)[C@H](CCCCN)NC(=O)[C@H](CCCCN)NC(=O)[C@H](Cc1ccccc1)NC(=O)[C@H](Cc1ccccc1)NC(=O)[C@H](CCCCN)NC(=O)[C@H](CCCCN)NC(=O)[C@H](C)NC(=O)[C@H](CCCN=C(N)N)NC(=O)[C@@H](N)CCCCN)C(=O)N[C@@H](CCCCN)C(N)=O [KRAKKFFKKLK],MIC,[24],≥ 100 µM
NCCCC[C@H](NC(=O)[C@H](CO)NC(=O)[C@H](Cc1cnc[nH]1)NC(=O)[C@H](CCCN=C(N)N)NC(=O)[C@H](Cc1cnc[nH]1)NC(=O)[C@H](CO)NC(=O)[C@H](CCC(N)=O)NC(=O)[C@H](Cc1ccc(O)cc1)NC(=O)[C@@H](N)CC(N)=O)C(=O)N[C@@H](CO)C(=O)O [NYQSHRHSKS],MIC,[22],≥ 75 µM
CC[C@H](C)[C@H](NC(=O)[C@H](Cc1c[nH]c2ccccc12)NC(=O)[C@H](CCCCN)NC(=O)[C@H](CC(C)C)NC(=O)[C@H](Cc1ccccc1)NC(=O)[C@@H](NC(=O)[C@H](CCCCN)NC(=O)[C@H](CC(C)C)NC(=O)[C@H](CC(C)C)NC(=O)[C@H](CCCCN)NC(=O)[C@@H]1CCCN1)[C@@H](C)O)C(=O)NCC(=O)O [PKLLKTFLKWIG],MIC,[20],14 µM
same,MIC,[31],25 µM
CC[C@H](C)[C@H](NC(=O)[C@@H]1CCCN1C(=O)[C@H](CCCCN)NC(=O)[C@@H]1CCCN1C(=O)[C@H](CCCN=C(N)N)NC(=O)CNC(=O)[C@@H]1CCCN1C(=O)[C@H](Cc1ccccc1)NC(=O)[C@@H]1CCCN1C(=O)[C@H](CCCN=C(N)N)NC(=O)[C@@H]1CCCN1C(=O)[C@H](CCCN=C(N)N)NC(=O)CNC(=O)[C@@H]1CCCN1C(=O)[C@H](CO)NC(=O)[C@@H]1CCCN1C(=O)[C@H](Cc1c[nH]c2ccccc12)NC(=O)[C@H](CCCN=C(N)N)NC(=O)[C@@H](N)CO)C(=O)N[C@@H](Cc1ccccc1)C(=O)N[C@@H](CCCN=C(N)N)C(=O)N1CCC[C@H]1C(=O)N[C@@H](CCCN=C(N)N)C(=O)O [SRWPSPGRPRPFPGRPKPIFRPR],MIC,[32],0.8 µM
same,MIC,[33],≥ 100 µM
same,MIC,[15],12.5 µM
same,MIC,[5],6.3 µM
same,MIC,[21],3.1 µM
